This is an account of results in patent US20250171457A1, “NITROGEN-CONTAINING HETEROCYCLIC COMPOUND HAVING NRF2 ACTIVATION EFFECT” (CHUGAI SEIYAKU KABUSHIKI KAISHA, priority 2022, published 2025).

For the experiment, the system named is Nrf2 transcriptional activity (pARE-Luc reporter) in HepG2 cells. In words: In vitro Nrf2 transcriptional activity measurement by ARE-dependent reporter assay in HepG2 cell. The class given is cell-based, human. The conditions noted are these: Homo sapiens; HepG2 cells transfected with pARE-Luc, 4 hours at 37° C.; luciferase activity of Example 1-54 or Example 17-23 at 3.75 μM defined as 100%. An outline of the steps: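 Luminescence readout (Bright-Glo) after 4 h, 37° C compound exposure of HepG2 cells carrying the ARE-luciferase vector pGL4.37. Each well converted to % response versus reference compound at 3.75 μM, and EC50 derived from dose-response curves.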
A general note: In a reporter assay the amount or activity of a reporter protein is the signal.
Broadly, the EC50 is the concentration at which the effect is half-maximal. Read a low EC50 as greater potency. `O=C(O)c1cc(F)c(-c2cccc3c2OCN(C(=O)c2c(Cl)cc(N4CC5(C4)OCCCCO5)cc2Cl)C3)cc1N1C2CCC1COC2` [Compound 5-6, 4-[3-[2,6-Dichloro-4-(5,10-dioxa-2-azaspiro[3.6]decan-2-yl)benzoyl]-2,4-dihydro-1,3-benzoxazin-8-yl]-5-fluoro-2-(3-oxa-8-azabicyclo[3.2.1]octan-8-yl)benzoic acid] returned an EC50 of 2.3 nM. `O=C(O)c1cc(F)c(-c2cccc3c2OCN(C(=O)c2c(Cl)cc(N4CC5(C4)OCC4(CCC4)CO5)cc2Cl)C3)cc1N1C2CCC1COC2` [Compound 5-8, 4-[3-[2,6-Dichloro-4-(6,11-dioxa-9-azadispiro[3.2.37.24]dodecan-9-yl)benzoyl]-2,4-dihydro-1,3-benzoxazin-8-yl]-5-fluoro-2-(3-oxa-8-azabicyclo[3.2.1]octan-8-yl)benzoic acid]: a half-maximal response (EC50) required 2 nM. `COC1(OC)CC2(CN(c3cc(Cl)c(C(=O)N4COc5c(cccc5-c5cc(N6C7CCC6COC7)c(C(=O)O)cc5F)C4)c(Cl)c3)C2)C1` [Compound 5-11, 4-[3-[2,6-Dichloro-4-(6,6-dimethoxy-2-azaspiro[3.3]heptan-2-yl)benzoyl]-2,4-dihydro-1,3-benzoxazin-8-yl]-5-fluoro-2-(3-oxa-8-azabicyclo[3.2.1]octan-8-yl)benzoic acid] registered an EC50 of 3.4 nM.

The molecule `COC1(OC)CN(c2cc(Cl)c(C(=O)N3COc4c(cccc4-c4cc(N5C6CCC5COC6)c(C(=O)O)cc4F)C3)c(Cl)c2)[C@@H]1C` [Compound 5-12, 4-[3-[2,6-Dichloro-4-[(2R)-3,3-dimethoxy-2-methylazetidin-1-yl]benzoyl]-2,4-dihydro-1,3-benzoxazin-8-yl]-5-fluoro-2-(3-oxa-8-azabicyclo[3.2.1]octan-8-yl)benzoic acid] had an EC50 of 2.1 nM. Regarding `COC1CN(C2CN(c3cc(Cl)c(C(=O)N4COc5c(cccc5-c5cc(N6C7CCC6COC7)c(C(=O)O)cc5F)C4)c(Cl)c3)C2)C1` [Compound 5-13, 4-[3-[2,6-Dichloro-4-[3-(3-methoxyazetidin-1-yl)azetidin-1-yl]benzoyl]-2,4-dihydro-1,3-benzoxazin-8-yl]-5-fluoro-2-(3-oxa-8-azabicyclo[3.2.1]octan-8-yl)benzoic acid], the response was half-maximal at 2.7 nM (EC50). In the case of `C[C@H]1COCCN1C1CN(c2cc(Cl)c(C(=O)N3COc4c(cccc4-c4cc(N5C6CCC5COC6)c(C(=O)O)cc4F)C3)c(Cl)c2)C1` [Compound 5-14, 4-[3-[2,6-Dichloro-4-[3-[(3S)-3-methylmorpholin-4-yl]azetidin-1-yl]benzoyl]-2,4-dihydro-1,3-benzoxazin-8-yl]-5-fluoro-2-(3-oxa-8-azabicyclo[3.2.1]octan-8-yl)benzoic acid], the EC50 came out at 2.9 nM. As for `C[C@@H]1COCCN1C1CN(c2cc(Cl)c(C(=O)N3COc4c(cccc4-c4cc(N5C6CCC5COC6)c(C(=O)O)cc4F)C3)c(Cl)c2)C1` [Compound 5-15, 4-[3-[2,6-Dichloro-4-[3-[(3R)-3-methylmorpholin-4-yl]azetidin-1-yl]benzoyl]-2,4-dihydro-1,3-benzoxazin-8-yl]-5-fluoro-2-(3-oxa-8-azabicyclo[3.2.1]octan-8-yl)benzoic acid], the EC50 came to 3.1 nM.

`COCC1(OC)CN(c2cc(Cl)c(C(=O)N3COc4c(cccc4-c4cc(N5C6CCC5COC6)c(C(=O)O)cc4F)C3)c(Cl)c2)C1` [Compound 6-1, 4-[3-[2,6-Dichloro-4-[3-methoxy-3-(methoxymethyl)azetidin-1-yl]benzoyl]-2,4-dihydro-1,3-benzoxazin-8-yl]-5-fluoro-2-(3-oxa-8-azabicyclo[3.2.1]octan-8-yl)benzoic acid] gave an EC50 of 2.1 nM. The molecule `COC1(C(F)(F)F)CN(c2cc(Cl)c(C(=O)N3COc4c(cccc4-c4cc(N5C6CCC5COC6)c(C(=O)O)cc4F)C3)c(Cl)c2)C1` [Compound 6-2, 4-[3-[2,6-Dichloro-4-[3-methoxy-3-(trifluoromethyl)azetidin-1-yl]benzoyl]-2,4-dihydro-1,3-benzoxazin-8-yl]-5-fluoro-2-(3-oxa-8-azabicyclo[3.2.1]octan-8-yl)benzoic acid] had an EC50 of 2.8 nM. With `O=C(O)c1cc(F)c(-c2cccc3c2OCN(C(=O)c2c(Cl)cc(N4CC(OCC(F)(F)F)C4)cc2Cl)C3)cc1N1C2CCC1COC2` [Compound 6-3, 4-[3-[2,6-Dichloro-4-[3-(2,2,2-trifluoroethoxy)azetidin-1-yl]benzoyl]-2,4-dihydro-1,3-benzoxazin-8-yl]-5-fluoro-2-(3-oxa-8-azabicyclo[3.2.1]octan-8-yl)benzoic acid] the figure was 5.7 nM; with `COCC1(F)CN(c2cc(Cl)c(C(=O)N3COc4c(cccc4-c4cc(N5C6CCC5COC6)c(C(=O)O)cc4F)C3)c(Cl)c2)C1` [Compound 6-4, 4-[3-[2,6-Dichloro-4-[3-fluoro-3-(methoxymethyl)azetidin-1-yl]benzoyl]-2,4-dihydro-1,3-benzoxazin-8-yl]-5-fluoro-2-(3-oxa-8-azabicyclo[3.2.1]octan-8-yl)benzoic acid], 2 nM; with `CCOC1CN(c2cc(Cl)c(C(=O)N3COc4c(cccc4-c4cc(N5C6CCC5COC6)c(C(=O)O)cc4F)C3)c(Cl)c2)C1` [Compound 6-5, 4-[3-[2,6-Dichloro-4-(3-ethoxyazetidin-1-yl)benzoyl]-2,4-dihydro-1,3-benzoxazin-8-yl]-5-fluoro-2-(3-oxa-8-azabicyclo[3.2.1]octan-8-yl)benzoic acid], 10 nM. `CC(C)OC1CN(c2cc(Cl)c(C(=O)N3COc4c(cccc4-c4cc(N5C6CCC5COC6)c(C(=O)O)cc4F)C3)c(Cl)c2)C1` [Compound 6-6, 4-[3-[2,6-Dichloro-4-(3-propan-2-yloxy-azetidin-1-yl)benzoyl]-2,4-dihydro-1,3-benzoxazin-8-yl]-5-fluoro-2-(3-oxa-8-azabicyclo[3.2.1]octan-8-yl)benzoic acid] gave an EC50 of 12 nM.

`O=C(O)c1cc(F)c(-c2cccc3c2OCN(C(=O)c2c(Cl)cc(N4CC(OC5COC5)C4)cc2Cl)C3)cc1N1C2CCC1COC2` [Compound 6-7, 4-[3-[2,6-Dichloro-4-[3-(oxetan-3-yloxy)azetidin-1-yl]benzoyl]-2,4-dihydro-1,3-benzoxazin-8-yl]-5-fluoro-2-(3-oxa-8-azabicyclo[3.2.1]octan-8-yl)benzoic acid] gave an EC50 of 5.7 nM.

For the molecule `COCCOC1CN(c2cc(Cl)c(C(=O)N3COc4c(cccc4-c4cc(N5C6CCC5COC6)c(C(=O)O)cc4F)C3)c(Cl)c2)C1` [Compound 6-8, 4-[3-[2,6-Dichloro-4-[3-(2-methoxyethoxy)azetidin-1-yl]benzoyl]-2,4-dihydro-1,3-benzoxazin-8-yl]-5-fluoro-2-(3-oxa-8-azabicyclo[3.2.1]octan-8-yl)benzoic acid], a half-maximal effect (EC50) was put at 2.4 nM. For the molecule `COCCOC1CC2(C1)CN(c1cc(Cl)c(C(=O)N3COc4c(cccc4-c4cc(N5C6CCC5COC6)c(C(=O)O)cc4F)C3)c(Cl)c1)C2` [Compound 6-9, 4-[3-[2,6-Dichloro-4-[6-(2-methoxyethoxy)-2-azaspiro[3.3]heptan-2-yl]benzoyl]-2,4-dihydro-1,3-benzoxazin-8-yl]-5-fluoro-2-(3-oxa-8-azabicyclo[3.2.1]octan-8-yl)benzoic acid], a half-maximal effect (EC50) was put at 2.2 nM. `O=C(O)c1cc(F)c(-c2cccc3c2OCN(C(=O)c2c(Cl)cc(N4CC5(CC(OC6COC6)C5)C4)cc2Cl)C3)cc1N1C2CCC1COC2` [Compound 6-10, 4-[3-[2,6-Dichloro-4-[6-(oxetan-3-yloxy)-2-azaspiro[3.3]heptan-2-yl]benzoyl]-2,4-dihydro-1,3-benzoxazin-8-yl]-5-fluoro-2-(3-oxa-8-azabicyclo[3.2.1]octan-8-yl)benzoic acid] showed an EC50 of 3.7 nM. Take `O=C(O)c1cc(F)c(-c2cccc3c2OCN(C(=O)c2c(Cl)cc(N4CC5(CN(CC6(F)COC6)C5)C4)cc2Cl)C3)cc1N1C2CCC1COC2` [Compound 7-1, 4-[3-[2,6-Dichloro-4-[6-[(3-fluorooxetan-3-yl)methyl]-2,6-diazaspiro[3.3]heptan-2-yl]benzoyl]-2,4-dihydro-1,3-benzoxazin-8-yl]-5-fluoro-2-(3-oxa-8-azabicyclo[3.2.1]octan-8-yl)benzoic acid]: a half-maximal effect (EC50) was put at 4.8 nM.

As for `COCCN1CC2(C1)CN(c1cc(Cl)c(C(=O)N3COc4c(cccc4-c4cc(N5C6CCC5COC6)c(C(=O)O)cc4F)C3)c(Cl)c1)C2` [Compound 7-3, 4-[3-[2,6-Dichloro-4-[6-(2-methoxyethyl)-2,6-diazaspiro[3.3]heptan-2-yl]benzoyl]-2,4-dihydro-1,3-benzoxazin-8-yl]-5-fluoro-2-(3-oxa-8-azabicyclo[3.2.1]octan-8-yl)benzoic acid], the half-maximal effective concentration (EC50) was determined as 18 nM. `O=C(O)c1cc(F)c(-c2cccc3c2OCN(C(=O)c2c(Cl)cc(N4CC5(CCN5CC(F)F)C4)cc2Cl)C3)cc1N1C2CCC1COC2` [Compound 7-4, 4-[3-[2,6-Dichloro-4-[1-(2,2-difluoroethyl)-1,6-diazaspiro[3.3]heptan-6-yl]benzoyl]-2,4-dihydro-1,3-benzoxazin-8-yl]-5-fluoro-2-(3-oxa-8-azabicyclo[3.2.1]octan-8-yl)benzoic acid]: the EC50 worked out at 4.3 nM. In turn, `O=C(O)c1cc(F)c(-c2cccc3c2OCN(C(=O)c2c(Cl)cc(N4CC5(CN(CC(F)(F)F)C5)C4)cc2Cl)C3)cc1N1C2CCC1COC2` [Compound 7-5, 4-[3-[2,6-Dichloro-4-[6-(2,2,2-trifluoroethyl)-2,6-diazaspiro[3.3]heptan-2-yl]benzoyl]-2,4-dihydro-1,3-benzoxazin-8-yl]-5-fluoro-2-(3-oxa-8-azabicyclo[3.2.1]octan-8-yl)benzoic acid] showed an EC50 of 3.7 nM.

The molecule `COCCN1CCC12CN(c1cc(Cl)c(C(=O)N3COc4c(cccc4-c4cc(N5C6CCC5COC6)c(C(=O)O)cc4F)C3)c(Cl)c1)C2` [Compound 7-6, 4-[3-[2,6-Dichloro-4-[1-(2-methoxyethyl)-1,6-diazaspiro[3.3]heptan-6-yl]benzoyl]-2,4-dihydro-1,3-benzoxazin-8-yl]-5-fluoro-2-(3-oxa-8-azabicyclo[3.2.1]octan-8-yl)benzoic acid] had an EC50 of 5.4 nM.
